{
  "source": "patent US20080014211A1",
  "about": "“Methods to elicit, enhance and sustain immune responses against MHC class I-restricted epitopes, for prophylactic and therapeutic purposes” (priority 2006, published 2008)",
  "key": {"[1]": {"tested_on": "HPV-16 transformed tumor cells", "test": "Neoadjuvant efficacy: immunotherapy prior to primary tumor treatment (Example 14)", "assay_type": "in vivo, C57BL/6 mice", "protocol": "Then mice are treated with CTX (100 mg/kg) starting on day 30 or by radiotherapy, every other day until the animals reach complete remission (FIG. 15). A separate cohort has the tumor removed on day 30 but no treatment with CTX. The animals are then observed for tumor relapse."}, "[2]": {"tested_on": "CD4+CD25+Fox P3+ T-regulatory cells", "conditions": "tumor bearing mice, one injection 100 mg/kg on Day 46, spleens day 49; p=0.02", "protocol": "Control mice received either poyIC or saline.\nMice received one injection of cyclophosphamide (CTX, 100 mg/kg) on days 46 […]. On day 49, spleens were removed from 3 mice in each group and the percentage of CD25^+ and Fox P3^+ cells were calculated within the total CD4^+ population (FIG. 6)."}, "[3]": {"tested_on": "HPV-16 transformed tumor cells", "test": "Adjunctive therapy: immunotherapy accompanying chemotherapy (Example 16)", "conditions": "CTX 100 or 30 mg/kg on days 14 and 16", "quoted_text": "C57BL/6 mice are inoculated subcutaneously with 10^5 HPV-16 transformed tumor cells on Day 0, and treated with CTX (100 or 30 mg/kg) on days 14 and 16 or treated by radiotherapy. […] Additional control arms are treated with CTX but not immunized."}, "[4]": {"tested_on": "CD4+/CD25+/FoxP3+ T regulatory cells", "conditions": "intraperitoneal 100 mg/kg; mice bearing HPV-16 transformed tumors"}, "[5]": {"tested_on": "HPV-16 transformed tumor cells", "test": "Adjuvant efficacy: immunotherapy after primary tumor removal (Example 13)", "assay_type": "in vivo, C57BL/6 mice", "protocol": "A separate cohort is left untreated and tumors are removed at day 20 using surgery or irradiated using conventional radiotherapy. […] Additional control arms are treated with CTX, radiotherapy or surgery but not immunized."}, "[6]": {"tested_on": "HPV-16 transformed tumor cells", "test": "Adjunctive therapy, survival (Kaplan-Meier) (Example 11)", "assay_type": "in vivo, C57BL/6 mice", "conditions": "two therapeutic cycles; Kaplan-Meier estimates; n=20", "quoted_text": "The effect of adjunctive therapy on survival was also evaluated in C57BL/6 mice inoculated with 10^5 HPV-16 transformed tumor cells as described in Example 10. A second therapeutic cycle was administered in which animals received CTX (30 mg/kg) on Day 46 and 50 (n=20), immunization with E749-57 HPV peptide and dsRNA (25 μg/Day) in bilateral inguinal lymph nodes on Day 52, 56, 65, and 69 (n=20), or were treated with a combination of CTX and immunotherapy (n=20). Kaplan-Meier (product-limit) estimates of the survival function were obtained for each of the four conditions (Control, CTX Only, Immunotherapy Only and CTX/Immunotherapy Combined), as shown in FIG. 12. Log-Rank tests were used to compare the four survival curves."}, "[7]": {"tested_on": "HPV-16 transformed tumor cells", "test": "Adjunctive therapy in late stage cancer, tumor progression (Example 10)", "assay_type": "in vivo, C57BL/6 mice", "conditions": "CTX 30 mg/kg Day 14, 18, immunization Day 20, 24, 34, 38, n=20", "description": "Tumor progression (FIG. 11, Panel A) and immune response (FIG. 11, Panel B) was compared to untreated tumor control mice (n=20)."}, "[8]": {"tested_on": "HPV-16 transformed tumor cells", "test": "Consolidation therapy: immunotherapy post chemotherapy (Example 15)", "assay_type": "in vivo, C57BL/6 mice", "conditions": "CTX 100 or 30 mg/kg on days 14 and 16", "protocol": "The animals are rested for 7 days until the number of lymphocytes in the blood reaches normal levels. At that point, all animals show reduced disease or complete remission relative to pre-treatment stage. […] Additional control arms are treated with CTX or radiotherapy but not immunized."}},
  "data": [
    {"smiles": "O=P1(N(CCCl)CCCl)NCCCO1", "note": "(centres unmarked) [cyclophosphamide]", "values": [
      {"measurement": "remission in unimmunized animals", "setting": "[1]; CTX 100 mg/kg from day 30 every other day", "result": "attain partial or complete remission"},
      {"measurement": "relapse in unimmunized animals", "setting": "[1]; after CTX, radiotherapy or surgery", "result": "relapse in a significant number"},
      {"measurement": "levels of T-regulatory cells (CD25+ Fox P3+ within total CD4+) in spleen", "setting": "[2]", "result": "significantly reduced levels"},
      {"measurement": "remission after CTX treatment", "setting": "[3]", "result": "attain partial remission or complete remission within 20 days after CTX treatment"},
      {"measurement": "level of T-regs in spleen", "setting": "[4]", "result": "reduced"},
      {"measurement": "level of T-regs in the tumor", "setting": "[4]", "result": "reduced"},
      {"measurement": "remission after primary treatment", "setting": "[5]; CTX 100 mg/kg from day 14 every other day", "result": "attain complete remission"},
      {"measurement": "relapse without follow up immunotherapy", "setting": "[5]; after complete remission", "result": "relapse in a significant number"},
      {"measurement": "median survival time", "setting": "[6]", "result": 68, "unit": "days"},
      {"measurement": "tumor regression compared to untreated tumor controls", "setting": "[7]", "result": "did not significantly induce tumor regression"},
      {"measurement": "remission after treatment", "setting": "[8]", "result": "attain partial remission or complete remission within 10 days after treatment"}
    ]}
  ]
}
